We go through 26 substances from the OligoGym collection.

HELM strings list units from the 5' end as sugar, base in round brackets, then linkage (d deoxyribose, r ribose, m 2'-O-methyl, p phosphodiester). Strings are as the collection lists them; they lack the last nucleoside at the 3' end of the tested compound. [moe] = 2'-O-(2-methoxyethyl) (MOE); [sp] = phosphorothioate linkage; [m5C] = 5-methylcytosine

The target in the data set is UBE3A-ATS. The experiment in a line: mouse, dose not given. The note with it: ASO.

With “RNA1{[moe](A)[sp].[moe](G)p.[moe](G)p.[moe](A)p.[moe]([m5C])p.d([m5C])[sp].d(T)[sp].d([m5C])[sp].d(A)[sp].d(G)[sp].d(G)[sp].d(A)[sp].d(G)[sp].d(A)[sp].d(T)[sp].[moe](T)p.[moe](G)p.[moe](T)[sp].[moe](A)}$$$$ (last 3' nucleoside missing)”, the 3 h FOB score worked out at 2.3 score 0-7.
As to “RNA1{[moe](A)[sp].[moe](G)p.[moe](G)p.[moe](T)p.[moe](G)p.d(T)[sp].d([m5C])[sp].d(T)[sp].d(T)[sp].d(A)[sp].d(T)[sp].d(A)[sp].d(T)[sp].d([m5C])[sp].d(T)[sp].[moe](A)p.[moe](T)p.[moe](G)[sp].[moe](A)}$$$$ (last 3' nucleoside missing)”, the 3 h FOB score came to 0 score 0-7.
As to “RNA1{[moe](A)[sp].[moe](G)p.[moe](G)p.[moe](T)p.[moe]([m5C])p.[moe](A)p.d(A)[sp].d([m5C])[sp].d([m5C])[sp].d(A)[sp].d(A)[sp].d(T)[sp].d(T)[sp].d(T)[sp].d(G)[sp].d([m5C])[sp].[moe](T)p.[moe](A)[sp].[moe](T)}$$$$ (last 3' nucleoside missing)”, the 3 h FOB score was found to be 5.3 score 0-7.
For “RNA1{[moe](A)[sp].[moe](G)p.[moe](G)p.[moe](T)p.[moe]([m5C])p.d(A)[sp].d(A)[sp].d([m5C])[sp].d([m5C])[sp].d(A)[sp].d(A)[sp].d(T)[sp].d(T)[sp].d(T)[sp].d(G)[sp].[moe]([m5C])p.[moe](T)p.[moe](A)[sp].[moe](T)}$$$$ (last 3' nucleoside missing)” the value was 5.3 score 0-7; for “RNA1{[moe](A)[sp].[moe](G)p.[moe](G)p.[moe](T)p.d([m5C])[sp].d(A)[sp].d(A)[sp].d([m5C])[sp].d([m5C])[sp].d(A)[sp].d(A)[sp].d(T)[sp].d(T)[sp].d(T)[sp].[moe](G)p.[moe]([m5C])p.[moe](T)p.[moe](A)[sp].[moe](T)}$$$$ (last 3' nucleoside missing)”, 1 score 0-7.
For “RNA1{[moe](A)[sp].[moe](G)p.[moe](G)p.[moe]([m5C])p.[moe](A)p.d(A)[sp].d(T)[sp].d(G)[sp].d(G)[sp].d(A)[sp].d([m5C])[sp].d(T)[sp].d(T)[sp].d(A)[sp].d(G)[sp].[moe](T)p.[moe](A)p.[moe]([m5C])[sp].[moe](A)}$$$$ (last 3' nucleoside missing)” the value was 4 score 0-7; for “RNA1{[moe](A)[sp].[moe](G)p.[moe](G)p.[moe]([m5C])p.[moe](A)p.d(T)[sp].d(T)[sp].d(T)[sp].d(G)[sp].d(G)[sp].d(A)[sp].d(G)[sp].d([m5C])[sp].d(A)[sp].d(T)[sp].[moe](T)p.[moe]([m5C])p.[moe](G)[sp].[moe](G)}$$$$ (last 3' nucleoside missing)”, 6.2 score 0-7.
For “RNA1{[moe](A)[sp].[moe](G)p.[moe](T)p.[moe](A)p.[moe](T)p.d(A)[sp].d(G)[sp].d(A)[sp].d(T)[sp].d(G)[sp].d([m5C])[sp].d([m5C])[sp].d(T)[sp].d([m5C])[sp].d(T)[sp].[moe]([m5C])p.[moe]([m5C])p.[moe](T)[sp].[moe]([m5C])}$$$$ (last 3' nucleoside missing)” the value was 3.3 score 0-7; for “RNA1{[moe](A)[sp].[moe](G)p.[moe](T)p.[moe](G)p.[moe](G)p.d(T)[sp].d(T)[sp].d(G)[sp].d([m5C])[sp].d([m5C])[sp].d(T)[sp].d(T)[sp].d(A)[sp].d(G)[sp].d(T)[sp].[moe](A)p.[moe](T)p.[moe](T)[sp].[moe](A)}$$$$ (last 3' nucleoside missing)”, 6 score 0-7; for “RNA1{[moe](A)[sp].[moe](G)p.[moe](T)p.[moe](G)p.[moe](T)p.d([m5C])[sp].d(A)[sp].d(T)[sp].d(A)[sp].d(T)[sp].d(G)[sp].d(T)[sp].d(A)[sp].d(G)[sp].d([m5C])[sp].[moe](A)p.[moe](A)p.[moe](T)[sp].[moe](T)}$$$$ (last 3' nucleoside missing)”, 4 score 0-7.
With “RNA1{[moe](A)[sp].[moe](G)p.[moe](T)p.[moe](G)p.[moe]([m5C])p.d([m5C])[sp].d(T)[sp].d(T)[sp].d(T)[sp].d([m5C])[sp].d(T)[sp].d(A)[sp].d(T)[sp].d(T)[sp].d(T)[sp].[moe]([m5C])p.[moe](A)p.[moe](G)[sp].[moe](A)}$$$$ (last 3' nucleoside missing)”, the 3 h FOB score was 0 score 0-7.
For “RNA1{[moe](A)[sp].[moe](G)p.[moe](T)p.[moe](T)p.[moe](T)p.d(T)[sp].d([m5C])[sp].d(G)[sp].d([m5C])[sp].d([m5C])[sp].d([m5C])[sp].d(G)[sp].d(T)[sp].d(T)[sp].d(A)[sp].[moe]([m5C])p.[moe]([m5C])p.[moe](T)[sp].[moe]([m5C])}$$$$ (last 3' nucleoside missing)” the value was 4 score 0-7.
Under “RNA1{[moe](A)[sp].[moe](G)p.[moe](T)p.[moe]([m5C])p.[moe](T)p.d(T)[sp].d([m5C])[sp].d(A)[sp].d(T)[sp].d(T)[sp].d(A)[sp].d(T)[sp].d(T)[sp].d([m5C])[sp].d(T)[sp].[moe]([m5C])p.[moe](T)p.[moe](A)[sp].[moe](G)}$$$$ (last 3' nucleoside missing)” stands 1 score 0-7; under “RNA1{[moe](A)[sp].[moe](G)p.[moe]([m5C])p.[moe](T)p.[moe](A)p.d(T)[sp].d([m5C])[sp].d(T)[sp].d(G)[sp].d(T)[sp].d(A)[sp].d([m5C])[sp].d(A)[sp].d(A)[sp].d(A)[sp].[moe](A)p.[moe](T)p.[moe](G)[sp].[moe](G)}$$$$ (last 3' nucleoside missing)”, 4 score 0-7.
Under “RNA1{[moe](A)[sp].[moe](G)p.[moe]([m5C])p.[moe](T)p.[moe](T)p.d(T)[sp].d(A)[sp].d(G)[sp].d(T)[sp].d(A)[sp].d(T)[sp].d(G)[sp].d(T)[sp].d([m5C])[sp].d(G)[sp].[moe](A)p.[moe](G)p.[moe](A)[sp].[moe](A)}$$$$ (last 3' nucleoside missing)” stands 4.2 score 0-7; under “RNA1{[moe](A)[sp].[moe](G)p.[moe]([m5C])p.[moe](T)p.[moe]([m5C])p.d(A)[sp].d([m5C])[sp].d(T)[sp].d(G)[sp].d(A)[sp].d(A)[sp].d(A)[sp].d(G)[sp].d(A)[sp].d([m5C])[sp].[moe](A)p.[moe]([m5C])p.[moe](A)[sp].[moe](A)}$$$$ (last 3' nucleoside missing)”, 5 score 0-7; under “RNA1{[moe](A)[sp].[moe](G)p.[moe]([m5C])p.[moe]([m5C])[sp].d(A)[sp].d(G)[sp].d(G)[sp].d(T)[sp].d(G)[sp].d(T)[sp].d([m5C])[sp].d(T)[sp].[moe](T)p.[moe](A)p.[moe](T)p.[moe](A)[sp].[moe](T)}$$$$ (last 3' nucleoside missing)”, 6 score 0-7.
Regarding “RNA1{[moe](A)[sp].[moe](G)p.[moe]([m5C])p.[moe]([m5C])p.[moe](A)[sp].d(G)[sp].d(G)[sp].d(T)[sp].d(G)[sp].d(T)[sp].d([m5C])[sp].d(T)[sp].d(T)[sp].[moe](A)p.[moe](T)p.[moe](A)[sp].[moe](T)}$$$$ (last 3' nucleoside missing)”, the 3 h FOB score worked out at 6 score 0-7.
Under “RNA1{[moe](A)[sp].[moe](G)p.[moe]([m5C])p.[moe]([m5C])p.[moe](A)p.[moe](G)[sp].d(G)[sp].d(T)[sp].d(G)[sp].d(T)[sp].d([m5C])[sp].d(T)[sp].d(T)[sp].d(A)[sp].[moe](T)p.[moe](A)[sp].[moe](T)}$$$$ (last 3' nucleoside missing)” stands 0 score 0-7.
In the case of “RNA1{[moe](A)[sp].[moe](G)p.[moe]([m5C])p.[moe]([m5C])p.[moe](A)p.[moe](G)p.d(G)[sp].d(T)[sp].d(G)[sp].d(T)[sp].d([m5C])[sp].d(T)[sp].d(T)[sp].d(A)[sp].d(T)[sp].d(A)[sp].[moe](T)p.[moe]([m5C])[sp].[moe](T)}$$$$ (last 3' nucleoside missing)”, the 3 h FOB score is 0 score 0-7.
“RNA1{[moe](A)[sp].[moe](G)p.[moe]([m5C])p.[moe]([m5C])p.[moe](A)p.d(G)[sp].d(G)[sp].d(T)[sp].d(G)[sp].d(T)[sp].d([m5C])[sp].d(T)[sp].d(T)[sp].d(A)[sp].d(T)[sp].[moe](A)p.[moe](T)p.[moe]([m5C])[sp].[moe](T)}$$$$ (last 3' nucleoside missing)” had a 3 h FOB score of 2.3 score 0-7.
Substance “RNA1{[moe](A)[sp].[moe](G)p.[moe]([m5C])p.[moe]([m5C])p.d(A)[sp].d(G)[sp].d(G)[sp].d(T)[sp].d(G)[sp].d(T)[sp].d([m5C])[sp].d(T)[sp].d(T)[sp].d(A)[sp].[moe](T)p.[moe](A)p.[moe](T)p.[moe]([m5C])[sp].[moe](T)}$$$$ (last 3' nucleoside missing)” yielded a 3 h FOB score of 4 score 0-7.
Under “RNA1{[moe](A)[sp].[moe](T)[sp].[moe]([m5C])[sp].[moe](A)[sp].[moe](T)[sp].d(G)[sp].d(T)[sp].d(G)[sp].d([m5C])[sp].d(A)[sp].d(T)[sp].d(A)[sp].d([m5C])[sp].d([m5C])[sp].d([m5C])[sp].[moe](A)[sp].[moe](G)[sp].[moe](G)[sp].[moe](G)}$$$$ (last 3' nucleoside missing)” stands 5.2 score 0-7.
For “RNA1{[moe](A)[sp].[moe](T)p.[moe](A)p.[moe](G)p.[moe]([m5C])p.d([m5C])[sp].d([m5C])[sp].d(T)[sp].d(T)[sp].d(T)[sp].d([m5C])[sp].d(A)[sp].d(G)[sp].d([m5C])[sp].d(A)[sp].[moe]([m5C])p.[moe](A)p.[moe]([m5C])[sp].[moe](T)}$$$$ (last 3' nucleoside missing)” the value was 3.5 score 0-7; for “RNA1{[moe](A)[sp].[moe](T)p.[moe](G)p.[moe](A)p.[moe](T)p.d([m5C])[sp].d(A)[sp].d(T)[sp].d(A)[sp].d([m5C])[sp].d(T)[sp].d(G)[sp].d(G)[sp].d(A)[sp].d(G)[sp].[moe]([m5C])p.[moe]([m5C])p.[moe](A)[sp].[moe](G)}$$$$ (last 3' nucleoside missing)”, 5.8 score 0-7.
In turn, “RNA1{[moe](A)[sp].[moe](T)p.[moe](G)p.[moe](A)p.[moe]([m5C])p.d(A)[sp].d(T)[sp].d(A)[sp].d(A)[sp].d([m5C])[sp].d([m5C])[sp].d(A)[sp].d(T)[sp].d(A)[sp].d(T)[sp].[moe](A)p.[moe]([m5C])p.[moe](A)[sp].[moe](A)}$$$$ (last 3' nucleoside missing)” showed a 3 h FOB score of 0 score 0-7.
